Data published in ChEMBL document CHEMBL3763055, “Evaluation of synthetic coumarins for antiausterity cytotoxicity against pancreatic cancers” (Bioorg Med Chem Lett, 2016).
The source made the active and inactive calls. The rule behind the calls is not given here.

What was measured:
[1] = Antiausterity activity against human PANC1 cells under nutrient deprived condition assessed as reduction in cell viability incubated for 24 hrs by WST-8 assay; format: functional, PANC-1
[2] = Cytotoxicity against human PANC1 cells in DMEM assessed as reduction in cell viability at 100 uM incubated for 24 hrs by WST-8 assay; format: cell-based; details: panc-1, 24 h
[3] = Antiausterity activity against human Capan1 cells under nutrient deprived condition assessed as reduction in cell viability incubated for 24 hrs by WST-8 assay; format: functional, CAPAN-1
[4] = Antiausterity activity against human MIAPaCa2 cells under nutrient deprived condition assessed as reduction in cell viability incubated for 24 hrs by WST-8 assay; format: functional, MIA PaCa-2
PANC-1 = experiment: Induction of apoptosis in human PANC1 cells under nutrient deprived condition at 50 uM after 24 hrs by ethidium bromide/acridine orange staining based fluorescence microscopy; format: functional, cell-based

| SMILES | PC50 [1] | Activity [2] | PC50 [3] | PC50 [4] | Activity (PANC-1) |
| --- | --- | --- | --- | --- | --- |
| CCCCCCCCCCCCOc1ccc2c(C(F)(F)F)cc(=O)oc2c1C | >100 µM | Non-toxic | – | – | – |
| COc1ccc(Cn2cc(COc3ccc4ccc(=O)oc4c3)nn2)cc1 | >100 µM | Non-toxic | – | – | – |
| CCCCCCCCn1cc(COc2ccc3ccc(=O)oc3c2)nn1 | >100 µM | Non-toxic | – | – | – |
| O=c1ccc2ccc(OCc3cn(Cc4ccc(C(F)(F)F)cc4)nn3)cc2o1 | >100 µM | Non-toxic | >100 µM | 9.6 µM | – |
| O=c1ccc2ccc(OCc3cn(Cc4cccc(C(F)(F)F)c4)nn3)cc2o1 | 29 µM | Non-toxic | 18 µM | 8.5 µM | Active |
| CC(C)(CC(=O)/C=C/c1ccc(C(F)(F)F)cc1)C1Cc2c(ccc3ccc(=O)oc23)O1 (configuration not stated) | 0.023 µM | – | – | – | – |
| CC(C)(CC(=O)/C=C/c1cccc(C(F)(F)F)c1)C1Cc2c(ccc3ccc(=O)oc23)O1 (configuration not stated) | 0.079 µM | – | – | – | – |
| Cc1cc(=O)oc2cc(OCC3CC3)ccc12 | >100 µM | Non-toxic | – | – | – |
| CC(C)c1ccc(Cn2cc(COc3ccc4ccc(=O)oc4c3)nn2)cc1 | >100 µM | Non-toxic | – | – | – |
| O=c1ccc2ccc(OCc3cn(Cc4ccccc4)nn3)cc2o1 | >100 µM | Non-toxic | – | – | – |
| CCCCCCCCCCCCCCCCOc1ccc2c(C(F)(F)F)cc(=O)oc2c1C | >100 µM | Non-toxic | – | – | – |
| CCCCCCCCOc1ccc2c(CC)cc(=O)oc2c1 | 29 µM | Non-toxic | – | – | – |
| CCCCCCCCOc1ccc2c(C(F)(F)F)cc(=O)oc2c1 | 63 µM | Non-toxic | – | – | – |
| CC(C)=CCC/C(C)=C/COc1cc2ccc(=O)oc2cc1O | 7.2 µM | – | – | – | – |
| CCCCCCCCCCCCOc1ccc2c(CC)cc(=O)oc2c1 | 51 µM | Non-toxic | – | – | – |
| CCCCCCCCCCCCOc1ccc2c(C)cc(=O)oc2c1 | >100 µM | Non-toxic | – | – | – |
| CCCCCCCCOc1ccc2c(C)cc(=O)oc2c1C | >100 µM | Non-toxic | – | – | – |
| CCCCCCCCOc1ccc2c(C)cc(=O)oc2c1 | 48 µM | Non-toxic | – | – | – |
| CCCCCCCCCCCCCCOc1ccc2c(C)cc(=O)oc2c1 | >100 µM | Non-toxic | – | – | – |
| CCCCCCCCCCCCCCCCOc1ccc2c(C(F)(F)F)cc(=O)oc2c1 | >100 µM | Non-toxic | – | – | – |
